A value given as a limit tells only on which side of the number the result lay.

The first data set concerns acute dextran sodium sulfate (DSS)-induced IBD. Put plainly: Acute prophylactic model of DSS-induced IBD in mice. It is filed as in vivo, male C57Bl/6 mice. The following applies: oral 10 mg/kg/day for 10 consecutive days, prophylactic. The text has this:
Acute and chronic models of dextran sodium sulfate (DSS)-induced IBD in mice were used to explore efficacy of GSNORi against this disease. Acute and chronic DSS-induced IBD are widely used and well characterized models that induce pathological changes in the colon similar to those observed in the human disease. In these models and in human disease, epithelial cells within the crypts of the colon are disrupted, leading to dysfunction of the epithelial barrier and the ensuing tissue inflammation, edema, and ulceration. GSNORi therapy may benefit IBD by restoring s-nitrosoglutathione (GSNO) levels, and thus prevent or reverse the epithelial barrier dysfunction. Experimental IBD was induced by administration of DSS in the drinking water of male C57Bl/6 mice (N=8 to 10 mice per group) for 6 consecutive days. GSNORi was dosed orally at doses of 0.1 to 10 mg/kg/day for 10 days starting two days prior to and continuing two days post DSS exposure. Two days post DSS exposure, the effect of GSNORi was assessed in a blinded fashion via endoscopy and histopathology using a five point scale ranging from a score=0 (normal tissue) through a score=4 (ulcerative tissue damage and marked pathological changes). Levels of circulating cytokines involved in inflammatory pathways were also assessed. The effect of GSNORi was compared to vehicle treated controls. The corticosteroid, prednisolone, was used as the positive control in this study and was administered daily at 3 mg/kg/day via oral dosing. Naïve mice (N=5) were also assessed as a normal tissue control.
For the compound `O=C(O)c1ccc(-c2nc3ccc(O)cc3cc2Cl)cc1` [Example 19, 4-(3-chloro-6-hydroxyquinolin-2-yl)benzoic acid], the “decrease of percent of mice with severe colon injury scores via endoscopy” value is listed as 31 % of vehicle control.

For another data set, the target named is T1, GSNOR (Homo sapiens, UniProt P11766).
T1 construct: made in house; host or cells: E. coli (arabinose-induced)
T1 sequence (P11766 whole entry): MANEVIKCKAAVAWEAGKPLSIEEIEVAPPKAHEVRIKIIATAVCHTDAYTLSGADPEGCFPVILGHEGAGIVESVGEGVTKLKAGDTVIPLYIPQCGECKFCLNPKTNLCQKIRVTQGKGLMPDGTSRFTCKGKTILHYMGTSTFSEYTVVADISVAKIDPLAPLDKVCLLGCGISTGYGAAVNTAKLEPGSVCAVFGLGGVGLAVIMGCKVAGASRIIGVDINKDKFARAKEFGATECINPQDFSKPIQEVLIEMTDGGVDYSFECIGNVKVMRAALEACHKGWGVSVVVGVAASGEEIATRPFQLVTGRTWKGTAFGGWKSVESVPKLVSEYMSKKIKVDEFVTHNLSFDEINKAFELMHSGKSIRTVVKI
Put plainly: GSNOR assay (inhibition of GSNOR activity, NADH absorbance at 340 nm). It is filed as biochemical. The following applies: printed as 'about <'; 0.240 mM GSNO, 0.300 mM NADH, pH 7.4, 25° C. As for the experimental part:
GSNOR expression and purification is described in Biochemistry 2000, 39, 10720-10729.
GSNOR Fermentation: Pre-cultures were grown from stabs of a GSNOR glycerol stock in 2XYT media containing 100 ug/ml ampicillin after an overnight incubation at 37° C. Cells were then added to fresh 2XYT (4 L) containing ampicillin and grown to an OD (A600) of 0.6-0.9 at 37° C. before induction. GSNOR expression was induced with 0.1% arabinose in an overnight incubation at 20° C.
GSNOR Purification: E. coli cell paste was lysed by nitrogen cavitation and the clarified lysate purified by Ni affinity chromatography on an AKTA FPLC (Amersham Pharmacia). The column was eluted in 20 mM Tris pH 8.0/250 mM NaCl with a 0-500 mM imidazole gradient. Eluted GSNOR fractions containing the Smt-GSNOR fusion were digested overnight with Ulp-1 at 4° C. to remove the affinity tag then re-run on the Ni column under the same conditions. GSNOR was recovered in the flowthrough fraction and for crystallography is further purified by Q-Sepharose and Heparin flowthrough chromatography in 20 mM Tris pH 8.0, 1 mM DTT, 10 uM ZnSO4.
GSNOR Assay: GSNO and enzyme/NADH Solutions are made up fresh each day. The solutions are filtered and allowed to warm to room temperature. GSNO solution: 100 mM NaPO4 (pH 7.4), 0.480 mM GSNO. 396 μL of GSNO Solution is added to a cuvette followed by 8 μL of test compound in DMSO (or DMSO only for full reaction control) and mixed with the pipette tip. Compounds to be tested are made up at a stock concentration of 10 mM in 100% DMSO. 2 fold serial dilutions are done in 100% DMSO. 8 μL of each dilution are added to an assay so that the final concentration of DMSO in the assay is 1%. The concentrations of compounds tested range from 100 to 0.003 μM. Enzyme/NADH solution: 100 mM NaPO4 (pH 7.4), 0.600 mM NADH, 1.0 μg/mL GSNO Reductase. 396 μL of the Enzyme/NADH solution is added to the cuvette to start the reaction. The cuvette is placed in the Cary 3E UV/Visible Spectrophotometer and the change in 340 nm absorbance/min at 25° C. is recorded for 3 minutes. The assays are done in triplicate for each compound concentration. IC50's for each compound are calculated using the standard curve analysis in the Enzyme Kinetics Module of SigmaPlot.
Final assay conditions: 100 mM NaPO4, pH 7.4, 0.240 mM GSNO, 0.300 mM NADH, 0.5 μg/mL GSNO Reductase, and 1% DMSO. Final volume: 800 μL/cuvette.
As to `O=C(O)[C@H]1CC[C@H](c2ccc3cc(O)ccc3n2)CC1` [Example 6, (1r,4r)-4-(6-hydroxyquinolin-2-yl)cyclohexanecarboxylic acid], the IC50 was less than 500 nM. Compound `O=C(O)c1ccc(-c2ccc3cc(O)ccc3n2)c(C(F)(F)F)c1` [Example 30, 4-(6-hydroxyquinolin-2-yl)-3-(trifluoromethyl)benzoic acid] showed an IC50 of less than 100 nM. The same measure, in the same setting: in the case of `O=C(O)c1ccc(-c2nc3ccc(O)cc3cc2C(F)(F)F)cc1` [Example 31, 4-(6-hydroxy-3-(trifluoromethyl)quinolin-2-yl)benzoic acid] it was less than 100 nM. Compound `O=C(O)c1ccc(-c2cc(F)c3cc(O)ccc3n2)c(Cl)c1` [Example 37, 3-chloro-4-(4-fluoro-6-hydroxyquinolin-2-yl)benzoic acid] displayed an IC50 of less than 100 nM. With `O=C(O)[C@H]1CC[C@H](c2nc3ccc(O)cc3cc2C(F)(F)F)CC1` [Example 43, (1r,4r)-4-(6-hydroxy-3-(trifluoromethyl)quinolin-2-yl)cyclohexanecarboxylic acid], the IC50 was less than 100 nM. The same measure, in the same setting: the same measure for `O=C(O)c1ccc(-c2ncc3cc(O)ccc3n2)cc1` [Example 45, 4-(6-hydroxyquinazolin-2-yl)benzoic acid]: less than 100 nM; for `O=C(O)c1ccc(-c2cc3ccc(O)cc3cn2)c(F)c1` [Example 65, 3-fluoro-4-(7-hydroxyisoquinolin-3-yl)benzoic acid]: less than 100 nM.

Test system in another data set: not listed separately
Put plainly: Mouse pharmacokinetic (PK) study. It is filed as in vivo, male BALB/c mice. As to conditions: male, BALB/c, plasma, po, 10 mg/kg, IV 2 mg/kg, read-out: oral bioavailability (% F). The text has this:
The mouse was used to determine the pharmacokinetics of compounds of the invention. This species is widely used to assess the bioavailability of compounds by administering both oral (PO) and intravenous (IV) test articles. Efficacy of the compounds of the invention was compared by assessing plasma exposure in male BALB/c mice either via IV or PO administration at the times of peak activity.
Compounds of the invention were reconstituted in a phosphate buffered saline (PBS)/10% Solutol (HS 15) clear solution resulting in a concentration of 0.2 mg/mL and administered to mice (2 mg/kg) as a single IV dose. Animals were dosed via the lateral tail vein. Blood samples were collected at designated time points (0.083, 0.25, 0.5, 1, 2, 4, 8, 16, 24 hours) by cardiac puncture under isoflurane anesthesia (up to 1 mL blood per animal). The blood was collected into tubes containing Li-Heparin. The blood samples were kept on ice until centrifugation within approximately 30 minutes of collection. The plasma was transferred into labeled polypropylene tubes and frozen at −70° C. until analyzed by LC/MS/MS.
The compounds of the invention were reconstituted in 40% Propylene Glycol/40% Propylene Carbonate/20% of a 5% Sucrose clear solution resulting in a concentration of 2 mg/mL and administered to mice (10 mg/kg) as a single oral dose via gavage. Blood samples were collected at 0.25, 0.5, 1, 2, 4, 8, 12, 16, 20 and 24 hours post dose by cardiac puncture under isoflurane anesthesia. The blood was collected in tubes containing Li-Heparin. […] The plasma was transferred into labeled polypropylene tubes and frozen at −70° C. until analyzed by LC/MS/MS.
Plasma samples at each timepoint were analyzed using a LC-MS/MS with a lower limit of quantification (LLOQ) of 1 ng/mL. Plasma was analyzed to determine the amount of the compound of the invention in each sample and regression curves generated for each compounds of the invention in the relevant matrixes. […]
In addition to the above PK parameters, bioavailability (% F) was calculated.
`O=C(O)c1ccc(-c2nc3ccc(O)cc3cc2Cl)cc1` [Example 19, 4-(3-chloro-6-hydroxyquinolin-2-yl)benzoic acid]: the bioavailability was greater than 9%. Regarding `O=C(O)c1ccc(-c2nc3ccc(O)cc3cc2Cl)c(F)c1` [Example 28, 4-(3-chloro-6-hydroxyquinolin-2-yl)-3-fluorobenzoic acid], the bioavailability is greater than 9%.

For another data set, the system named is cigarette smoke-induced COPD (subchronic 11 day). The data set is described as follows: Subchronic (11 day) cigarette smoke exposure COPD model. It is filed as in vivo, female C57Bl/6 mice. As to conditions: subchronic 11 day model; roflumilast 5 mg/kg/day. Here is the method:
The efficacy of GSNOR inhibitors was assessed in a mouse model of chronic obstructive pulmonary disease (COPD) induced by short duration (4 days or 11 days) of exposure to cigarette smoke. Infiltration of inflammatory cells into the bronchoalveolar lavage fluid (BALF) and BALF levels of chemokines involved in inflammation and tissue turnover/repair were measured to assess the influences of GSNOR inhibitors on some of the early events associated with the initiation and progression of COPD.
Efficacy of GSNOR inhibitors against COPD was explored using acute (4 day) and subchronic (11 day) models of cigarette smoke-induced COPD in mice. […] In animal models, changes in lung pathology are only evident after extended (several months) duration of exposure to cigarette smoke, thus making chronic models prohibitive as effective screening tools. More recently, models exploring inflammatory responses after short duration (2 weeks or less) of smoke exposure in mice have been utilized as tools for screening efficacy and mechanisms of action of novel therapeutics against COPD. The key roles of inflammation in the initiation and progression of COPD, make these short duration models relevant for initial tests of efficacy of novel therapeutics.
Subchronic (11 Day) Smoke Exposure Model: Female C57Bl/6 mice (N=10 per group) were exposed to cigarette smoke generated from Marlboro 100 cigarettes without filters. Exposure times were 25 min. on study day 1, 35 min. on study day 2, and 45 min. on study days 3 to 11. GSNOR inhibitors were administered one hour prior to smoke exposure on each day. GSNOR inhibitors were dosed orally at 1 to 10 mg/kg/day for 11 days. The effects of GSNOR inhibitors were assessed by quantitating the number of total cells, and leukocytes differentials in the BALF via light microscopy at 24 h after the last exposure. The effect of GSNOR inhibitors were compared to vehicle treated controls and expressed as percent inhibition of the cigarette smoke induced increases in BALF cell numbers. Roflumilast was used as the positive control for the study and was dosed at 5 mg/kg/day. A group of naïve mice (N=10) was exposed to air and dosed with vehicle as a negative control for the study.
For `O=C(O)c1ccc(-c2ccc3cc(O)ccc3n2)c(F)c1` [Example 13, 3-fluoro-4-(6-hydroxyquinolin-2-yl)benzoic acid], the “effects compared to roflumilast (positive control)” value is “comparable to those of roflumilast”. For the compound `Cc1cc(C(=O)O)ccc1-c1ccc2cc(O)ccc2n1` [Example 27, 4-(6-hydroxyquinolin-2-yl)-3-methylbenzoic acid], the “effects compared to roflumilast (positive control)” value is listed as “comparable to those of roflumilast”.

One may read the IC50 as the concentration at which inhibition is half-maximal. Low values mean inhibition by little substance, high ones a need for much substance. In general, bioavailability refers to dose-corrected exposure relative to a reference, in per cent.

(Values after patent US9221810B2, “Substituted bicyclic aromatic compounds as S-nitrosoglutathione reductase inhibitors” (Nivalis Therapeutics, Inc., priority 2010, dated 2015).)
